# Source: patent US20260015358A1, “BICYCLIC DERIVATIVES, COMPOSITIONS AND USES THEREOF” (Danatlas Pharmaceuticals Co., Ltd., priority 2023, published 2026)
# Columns and labels:
# [1] = molecular target: T1, WRN [UniPro: Q14191 (WRN_HUMAN), N500-C946] (Homo sapiens (Human), UniProt Q14191); experiment: WRN unwinding assay (FORKF DNA, fluorescence); format: biochemical; conditions: Table 14
# [2] = molecular target: T1, WRN [UniPro: Q14191 (WRN_HUMAN), N500-C946]; experiment: WRN ATPase assay (ADP-Glo); format: biochemical; conditions: WRN enzymatic activity assay
# T1 sequence (Q14191 500-946): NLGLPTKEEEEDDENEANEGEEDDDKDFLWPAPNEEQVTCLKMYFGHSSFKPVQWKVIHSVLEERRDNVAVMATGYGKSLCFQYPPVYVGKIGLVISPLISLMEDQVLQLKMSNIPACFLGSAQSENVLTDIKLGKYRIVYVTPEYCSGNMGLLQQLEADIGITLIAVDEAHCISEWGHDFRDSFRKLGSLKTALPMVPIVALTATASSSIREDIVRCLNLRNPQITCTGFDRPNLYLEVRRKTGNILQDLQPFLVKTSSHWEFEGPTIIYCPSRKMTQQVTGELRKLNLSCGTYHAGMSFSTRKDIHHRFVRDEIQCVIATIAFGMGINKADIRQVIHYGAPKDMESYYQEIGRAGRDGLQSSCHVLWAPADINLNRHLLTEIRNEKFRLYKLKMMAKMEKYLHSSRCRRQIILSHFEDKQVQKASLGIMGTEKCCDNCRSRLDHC
IC50 [1] [nM],IC50 [2] [nM],Structure (SMILES)
< 100,< 100,"CCc1c(N2CCN(C(=O)CNC(=O)c3cc(Cl)ccc3Cl)CC2)c(=O)n2nc(C3=CCOCC3)nc2n1CC(=O)Nc1ccc(C(F)(F)F)cc1Cl [Example 126, 2,5-Dichloro-N-(2-(4-(4-(2-((2-chloro-4-(trifluoromethyl)phenyl)amino)-2-oxoethyl)-2-(3,6-dihydro-2H-pyran-4-yl)-5-ethyl-7-oxo-4,7-dihydro-[1,2,4]triazolo[1,5-a]pyrimidin-6-yl)piperazin-1-yl)-2-oxoethyl)benzamide]"
< 100,100 to 1000,"CCc1c(N2CCN(C(=O)CNC(=O)c3ncc(C)s3)CC2)c(=O)n2nc(C3=CCOCC3)nc2n1CC(=O)Nc1ccc(C(F)(F)F)cc1Cl [Example 128, N-(2-(4-(4-(2-((2-Chloro-4-(trifluoromethyl)phenyl)amino)-2-oxoethyl)-2-(3,6-dihydro-2H-pyran-4-yl)-5-ethyl-7-oxo-4,7-dihydro-[1,2,4]triazolo[1,5-a]pyrimidin-6-yl)piperazin-1-yl)-2-oxoethyl)-5-methylthiazole-2-carboxamide]"
< 100,< 100,"CCc1c(N2CCN(C(=O)CNC(=O)c3cscn3)CC2)c(=O)n2nc(C3=CCOCC3)nc2n1CC(=O)Nc1ccc(C(F)(F)F)cc1Cl [Example 129, N-(2-(4-(4-(2-((2-Chloro-4-(trifluoromethyl)phenyl)amino)-2-oxoethyl)-2-(3,6-dihydro-2H-pyran-4-yl)-5-ethyl-7-oxo-4,7-dihydro-[1,2,4]triazolo[1,5-a]pyrimidin-6-yl)piperazin-1-yl)-2-oxoethyl)thiazole-4-carboxamide]"
< 100,< 100,"CCc1c(N2CCN(C(=O)CNC(=O)c3cc(C)no3)CC2)c(=O)n2nc(C3=CCOCC3)nc2n1CC(=O)Nc1ccc(C(F)(F)F)cc1Cl [Example 130, N-(2-(4-(4-(2-((2-Chloro-4-(trifluoromethyl)phenyl)amino)-2-oxoethyl)-2-(3,6-dihydro-2H-pyran-4-yl)-5-ethyl-7-oxo-4,7-dihydro-[1,2,4]triazolo[1,5-a]pyrimidin-6-yl)piperazin-1-yl)-2-oxoethyl)-3-methylisoxazole-5-carboxamide]"
< 100,100 to 1000,"CCc1c(N2CCN(C(=O)CNC(=O)c3cnc(C)s3)CC2)c(=O)n2nc(C3=CCOCC3)nc2n1CC(=O)Nc1ccc(C(F)(F)F)cc1Cl [Example 131, N-(2-(4-(4-(2-((2-Chloro-4-(trifluoromethyl)phenyl)amino)-2-oxoethyl)-2-(3,6-dihydro-2H-pyran-4-yl)-5-ethyl-7-oxo-4,7-dihydro-[1,2,4]triazolo[1,5-a]pyrimidin-6-yl)piperazin-1-yl)-2-oxoethyl)-2-methylthiazole-5-carboxamide]"
< 100,< 100,"CCc1c(N2CCN(C(=O)CNC(=O)c3ccc(F)c(F)c3)CC2)c(=O)n2nc(C3=CCOCC3)nc2n1CC(=O)Nc1ccc(C(F)(F)F)cc1Cl [Example 132, N-(2-(4-(4-(2-((2-Chloro-4-(trifluoromethyl)phenyl)amino)-2-oxoethyl)-2-(3,6-dihydro-2H-pyran-4-yl)-5-ethyl-7-oxo-4,7-dihydro-[1,2,4]triazolo[1,5-a]pyrimidin-6-yl)piperazin-1-yl)-2-oxoethyl)-3,4-difluorobenzamide]"
< 100,< 100,"CCc1c(N2CCN(C(=O)CNC(=O)c3ncccc3F)CC2)c(=O)n2nc(C3=CCOCC3)nc2n1CC(=O)Nc1ccc(C(F)(F)F)cc1Cl [Example 133, N-(2-(4-(4-(2-((2-Chloro-4-(trifluoromethyl)phenyl)amino)-2-oxoethyl)-2-(3,6-dihydro-2H-pyran-4-yl)-5-ethyl-7-oxo-4,7-dihydro-[1,2,4]triazolo[1,5-a]pyrimidin-6-yl)piperazin-1-yl)-2-oxoethyl)-3-fluoropicolinamide]"
< 100,< 100,"CCc1c(N2CCN(C(=O)CNC)CC2)c(=O)n2nc(C3=CCOCC3)nc2n1CC(=O)Nc1ccc(C(F)(F)F)cc1Cl [Example 134, N-(2-Chloro-4-(trifluoromethyl)phenyl)-2-(2-(3,6-dihydro-2H-pyran-4-yl)-5-ethyl-6-(4-(methylglycyl)piperazin-1-yl)-7-oxo-[1,2,4]triazolo[1,5-a]pyrimidin-4(7H)-yl)acetamide]"
100 to 1000,< 100,"CCc1c(N2CCN(C(=O)C(C)NC(=O)c3ccccc3)CC2)c(=O)n2nc(C3=CCOCC3)nc2n1CC(=O)Nc1ccc(C(F)(F)F)cc1Cl (centres unmarked) [Example 136, N-(1-(4-(4-(2-((2-Chloro-4-(trifluoromethyl)phenyl)amino)-2-oxoethyl)-2-(3,6-dihydro-2H-pyran-4-yl)-5-ethyl-7-oxo-4,7-dihydro-[1,2,4]triazolo[1,5-a]pyrimidin-6-yl)piperazin-1-yl)-1-oxopropan-2-yl)benzamide]"
< 100,< 100,"[2H]C([2H])(NC(=O)c1ccccc1F)C(=O)N1CCN(c2c(CC)n(CC(=O)Nc3ccc(C(F)(F)F)cc3Cl)c3nc(N4CCOCC4)nn3c2=O)CC1 [Example 138, N-(2-(4-(4-(2-((2-Chloro-4-(trifluoromethyl)phenyl)amino)-2-oxoethyl)-5-ethyl-2-morpholino-7-oxo-4,7-dihydro-[1,2,4]triazolo[1,5-a]pyrimidin-6-yl)piperazin-1-yl)-2-oxoethyl-1,1-d2)-2-fluorobenzamide]"
> 1000,> 1000,"CCc1c(N2CCC(NC(=O)CNC(=O)c3ccccc3)CC2)c(=O)n2nc(C3=CCOCC3)nc2n1CC(=O)Nc1ccc(C(F)(F)F)cc1Cl [Example 141, N-(2-((1-(4-(2-((2-Chloro-4-(trifluoromethyl)phenyl)amino)-2-oxoethyl)-2-(3,6-dihydro-2H-pyran-4-yl)-5-ethyl-7-oxo-4,7-dihydro-[1,2,4]triazolo[1,5-a]pyrimidin-6-yl)piperidin-4-yl)amino)-2-oxoethyl)benzamide]"
> 1000,100 to 1000,"CCc1c(N2CCN(C(=O)CNC(=O)c3ccccc3)CC2)c(=O)n2nc(C3=CCOCC3)nc2n1CC(=O)N(C)c1ccc(C(F)(F)F)cc1Cl [Example 143, N-(2-(4-(4-(2-((2-Chloro-4-(trifluoromethyl)phenyl)(methyl)amino)-2-oxoethyl)-2-(3,6-dihydro-2H-pyran-4-yl)-5-ethyl-7-oxo-4,7-dihydro-[1,2,4]triazolo[1,5-a]pyrimidin-6-yl)piperazin-1-yl)-2-oxoethyl)benzamide]"
< 100,100 to 1000,"CCc1c(N2CCN(C(=O)CNC(=O)c3ccccc3F)CC2)c(=O)n2nc(C3=CCOCC3)nc2n1CC(=O)Nc1cc(F)c(C(F)(F)F)cc1C [Example 144, N-(2-(4-(2-(3,6-Dihydro-2H-pyran-4-yl)-5-ethyl-4-(2-((5-fluoro-2-methyl-4-(trifluoromethyl)phenyl)amino)-2-oxoethyl)-7-oxo-4,7-dihydro-[1,2,4]triazolo[1,5-a]pyrimidin-6-yl)piperazin-1-yl)-2-oxoethyl)-2-fluorobenzamide]"
100 to 1000,100 to 1000,"CCc1c(N2CCN(C(=O)c3cnn4cccc4c3O)CC2)c(=O)n2nc(C3=CCOCC3)nc2n1CC(=O)Nc1sc(C)cc1Br [Example 146, N-(3-Bromo-5-methylthiophen-2-yl)-2-(2-(3,6-dihydro-2H-pyran-4-yl)-5-ethyl-6-(4-(4-hydroxypyrrolo[1,2-b]pyridazine-3-carbonyl)piperazin-1-yl)-7-oxo-[1,2,4]triazolo[1,5-a]pyrimidin-4(7H)-yl)acetamide]"
< 100,< 100,"CCc1c(N2CCN(C(=O)CNC(=O)c3ccccc3F)CC2)c(=O)n2nc(C3=CCOCC3)nc2n1CC(=O)Nc1ccc(C(F)(F)F)cc1C [Example 147, N-(2-(4-(2-(3,6-Dihydro-2H-pyran-4-yl)-5-ethyl-4-(2-((2-methyl-4-(trifluoromethyl)phenyl)amino)-2-oxoethyl)-7-oxo-4,7-dihydro-[1,2,4]triazolo[1,5-a]pyrimidin-6-yl)piperazin-1-yl)-2-oxoethyl)-2-fluorobenzamide]"
< 100,< 100,"CCc1c(N2CCN(C(=O)CNC(=O)c3ccccc3F)CC2)c(=O)n2nc(C3=CCOCC3)nc2n1CC(=O)Nc1ccc(C(F)(F)F)cc1 [Example 148, N-(2-(4-(2-(3,6-Dihydro-2H-pyran-4-yl)-5-ethyl-7-oxo-4-(2-oxo-2-((4-(trifluoromethyl)phenyl)amino)ethyl)-4,7-dihydro-[1,2,4]triazolo[1,5-a]pyrimidin-6-yl)piperazin-1-yl)-2-oxoethyl)-2-fluorobenzamide]"
< 100,< 100,"CCc1c(N2CCN(C(=O)CNC(=O)c3ccccc3F)CC2)c(=O)n2nc(C3=CCOCC3)nc2n1CC(=O)Nc1ccc(C(F)(F)F)cc1F [Example 149, N-(2-(4-(2-(3,6-Dihydro-2H-pyran-4-yl)-5-ethyl-4-(2-((2-fluoro-4-(trifluoromethyl)phenyl)amino)-2-oxoethyl)-7-oxo-4,7-dihydro-[1,2,4]triazolo[1,5-a]pyrimidin-6-yl)piperazin-1-yl)-2-oxoethyl)-2-fluorobenzamide]"
< 100,< 100,"CCc1c(N2CCN(C(=O)CNC(=O)c3ccccc3F)CC2)c(=O)n2nc(C3=CCOCC3)nc2n1CC(=O)Nc1ccc(F)cc1F [Example 150, N-(2-(4-(4-(2-((2,4-Difluorophenyl)amino)-2-oxoethyl)-2-(3,6-dihydro-2H-pyran-4-yl)-5-ethyl-7-oxo-4,7-dihydro-[1,2,4]triazolo[1,5-a]pyrimidin-6-yl)piperazin-1-yl)-2-oxoethyl)-2-fluorobenzamide]"
< 100,100 to 1000,"CCc1c(N2CCN(C(=O)CNC(=O)c3ccccc3F)CC2)c(=O)n2nc(C3=CCOCC3)nc2n1CC(=O)Nc1sc(C)cc1Br [Example 152, N-(2-(4-(4-(2-((3-bromo-5-methylthiophen-2-yl)amino)-2-oxoethyl)-2-(3,6-dihydro-2H-pyran-4-yl)-5-ethyl-7-oxo-4,7-dihydro-[1,2,4]triazolo[1,5-a]pyrimidin-6-yl)piperazin-1-yl)-2-oxoethyl)-2-fluorobenzamide]"
